Data from ChEMBL document CHEMBL1201862, “PubChem BioAssay data set” (2004).
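These data come from cells grown in 96-well plates and exposed to compound for 48 hours at five concentrations. Abbreviation: GI50, concentration required for 50% inhibition of growth.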 Activity calls are given as the source filed them. Cut-off read from the data, not from the text of the source: active = GI50 up to about 1.1 µM and inactive = higher.

How the values were obtained:
Test in all cases: growth of human tumour cells (NCI), 48 h
Malme-3M = tested on: Malme-3M
A498 = tested on: A498
HOP-62 = tested on: HOP-62
HT-29 = tested on: HT-29
SK-MEL-5 = tested on: SK-MEL-5
OVCAR-3 = tested on: OVCAR-3
HCT-116 = tested on: HCT-116
HCT-15 = tested on: HCT-15
CAKI-1 = tested on: CAKI-1
RXF 631 = tested on: RXF 631
DLD-1 = tested on: DLD-1
TK-10 = tested on: TK-10
NCI-H23 = tested on: NCI-H23
KM12 = tested on: KM12
RXF 393 = tested on: RXF 393
M14 = tested on: M14
RPMI-8226 = tested on: RPMI-8226
IGROV-1 = tested on: IGROV-1
U-251 = tested on: U-251
KM-20L2 = tested on: KM-20L2
SK-MEL-2 = tested on: SK-MEL-2
HL-60 = tested on: HL-60
NCI-H460 = tested on: NCI-H460
MOLT-4 = tested on: MOLT-4
OVCAR-8 = tested on: OVCAR-8
UACC-62 = tested on: UACC-62
EKVX = tested on: EKVX
SF-268 = tested on: SF-268
UACC-257 = tested on: UACC-257
COLO 205 = tested on: COLO 205
LXFL 529 = tested on: LXFL 529
XF498 = tested on: XF498
SK-MEL-28 = tested on: SK-MEL-28
HOP-92 = tested on: HOP-92
DMS-273 = tested on: DMS-273
UO-31 = tested on: UO-31
K562 = tested on: K562
SR = tested on: SR
NCI-H226 = tested on: NCI-H226
SN12C = tested on: SN12C
HOP-18 = tested on: HOP-18
SF-539 = tested on: SF-539
OVCAR-5 = tested on: OVCAR-5
SK-OV-3 = tested on: SK-OV-3
NCI-H522 = tested on: NCI-H522
LOX IMVI = tested on: LOX IMVI
OVCAR-4 = tested on: OVCAR-4
M19-MEL = tested on: M19-MEL
ACHN = tested on: ACHN
SNB-78 = tested on: SNB-78
CCRF-CEM = tested on: CCRF-CEM
A549 = tested on: A549
786-0 = tested on: 786-0
SNB-75 = tested on: SNB-75
SW-620 = tested on: SW-620
SF-295 = tested on: SF-295
SNB-19 = tested on: SNB-19
DMS-114 = tested on: DMS-114
HCC 2998 = tested on: HCC 2998

For `COC(=O)c1ccccc1/N=C/c1ccc(N(CCC#N)S(=O)(=O)c2ccccc2)cc1`, the GI50 (Malme-3M) was > 100 µM (inactive), the GI50 (A498) was > 100 µM (inactive) and the GI50 (HOP-62) was > 100 µM (inactive). The GI50 (HT-29) was > 100 µM (inactive), the GI50 (SK-MEL-5) was > 100 µM (inactive) and the GI50 (OVCAR-3) was > 100 µM (inactive). For the same molecule, the GI50 (HCT-116) was > 100 µM (inactive), the GI50 (HCT-15) was greater than 100 µM and the GI50 (CAKI-1) was > 100 µM (inactive). For the same molecule, the GI50 (RXF 631) was > 100 µM (inactive), the GI50 (DLD-1) was > 100 µM (inactive) and the GI50 (TK-10) was > 100 µM (inactive). The GI50 (NCI-H23) was > 100 µM (inactive), the GI50 (KM12) was > 100 µM (inactive) and the GI50 (RXF 393) was > 100 µM (inactive). For the same molecule, the GI50 (M14) was > 100 µM (inactive), the GI50 (RPMI-8226) was > 100 µM (inactive) and the GI50 (IGROV-1) was > 100 µM (inactive). For the same molecule, the GI50 (U-251) was > 100 µM (inactive), the GI50 (KM-20L2) was > 100 µM (inactive) and the GI50 (SK-MEL-2) was > 100 µM (inactive). The GI50 (HL-60) was > 100 µM (inactive), the GI50 (NCI-H460) was > 100 µM (inactive) and the GI50 (MOLT-4) was > 100 µM (inactive). For the same molecule, the GI50 (OVCAR-8) was > 100 µM (inactive), the GI50 (UACC-62) was > 100 µM (inactive) and the GI50 (EKVX) was > 100 µM (inactive). For the same molecule, the GI50 (SF-268) was > 100 µM (inactive), the GI50 (UACC-257) was > 100 µM (inactive) and the GI50 (COLO 205) was > 100 µM (inactive). For the same molecule, the GI50 (LXFL 529) was > 100 µM (inactive), the GI50 (XF498) was > 100 µM (inactive) and the GI50 (SK-MEL-28) was > 100 µM (inactive). For the same molecule, the GI50 (HOP-92) was > 100 µM (inactive), the GI50 (DMS-273) was > 100 µM (inactive) and the GI50 (UO-31) was > 100 µM (inactive). For the same molecule, the GI50 (K562) was > 100 µM (inactive), the GI50 (SR) was > 100 µM (inactive) and the GI50 (NCI-H226) was > 100 µM (inactive). The GI50 (SN12C) was > 100 µM (inactive), the GI50 (HOP-18) was > 100 µM (inactive) and the GI50 (SF-539) was > 100 µM (inactive). For the same molecule, the GI50 (OVCAR-5) was > 100 µM (inactive), the GI50 (SK-OV-3) was > 100 µM (inactive) and the GI50 (NCI-H522) was > 100 µM (inactive). The GI50 (LOX IMVI) was > 100 µM (inactive), the GI50 (OVCAR-4) was > 100 µM (inactive) and the GI50 (M19-MEL) was > 100 µM (inactive). The GI50 (ACHN) was > 100 µM (inactive), the GI50 (SNB-78) was > 100 µM (inactive) and the GI50 (CCRF-CEM) was > 100 µM (inactive). For the same molecule, the GI50 (A549) was > 100 µM (inactive), the GI50 (786-0) was > 100 µM (inactive) and the GI50 (SNB-75) was > 100 µM (inactive). For the same molecule, the GI50 (SW-620) was > 100 µM (inactive), the GI50 (SF-295) was > 100 µM (inactive) and the GI50 (SNB-19) was > 100 µM (inactive).

For `CC1CC(C)C2OC2(C)C[C@H](C)C(=O)NC(C)C(=O)N(C)[C@H](Cc2c(Br)[nH]c3ccccc23)C(=O)N[C@@H](c2ccc(O)cc2)CC(=O)O1` (stereo not given in full), the GI50 (Malme-3M) was 0.527 µM (active), the GI50 (DMS-114) was 0.0348 µM (active) and the GI50 (A498) was 0.522 µM (active). For the same molecule, the GI50 (HOP-62) was 0.33 µM (active), the GI50 (HT-29) was 0.106 µM (active) and the GI50 (SK-MEL-5) was 0.0933 µM (active). The GI50 (OVCAR-3) was 0.49 µM (active), the GI50 (HCT-116) was 0.0396 µM (active) and the GI50 (HCT-15) was 39.3 µM. The GI50 (CAKI-1) was 1.09 µM (active), the GI50 (RXF 631) was 0.76 µM (active) and the GI50 (DLD-1) was 3.37 µM (inactive). For the same molecule, the GI50 (TK-10) was 0.741 µM (active), the GI50 (NCI-H23) was 0.902 µM (active) and the GI50 (KM12) was 0.249 µM (active). For the same molecule, the GI50 (RXF 393) was 1.47 µM (inactive), the GI50 (M14) was 0.729 µM (active) and the GI50 (RPMI-8226) was 0.0355 µM (active). For the same molecule, the GI50 (IGROV-1) was 0.272 µM (active), the GI50 (U-251) was 0.0404 µM (active) and the GI50 (KM-20L2) was 0.15 µM (active). For the same molecule, the GI50 (SK-MEL-2) was 0.033 µM (active), the GI50 (HL-60) was 0.0723 µM (active) and the GI50 (NCI-H460) was 0.0388 µM (active). For the same molecule, the GI50 (MOLT-4) was 1.34 µM (inactive), the GI50 (OVCAR-8) was 4.89 µM (inactive) and the GI50 (UACC-62) was 2.5 µM (inactive). For the same molecule, the GI50 (EKVX) was 2.02 µM (inactive), the GI50 (SF-268) was 0.336 µM (active) and the GI50 (UACC-257) was 0.418 µM (active). The GI50 (COLO 205) was 0.0214 µM (active), the GI50 (LXFL 529) was 0.221 µM (active) and the GI50 (XF498) was 0.838 µM (active). For the same molecule, the GI50 (SK-MEL-28) was 0.839 µM (active), the GI50 (HOP-92) was 0.352 µM (active) and the GI50 (DMS-273) was 0.0241 µM (active). For the same molecule, the GI50 (UO-31) was 10 µM (inactive), the GI50 (K562) was 0.703 µM (active) and the GI50 (SR) was 0.277 µM (active). The GI50 (NCI-H226) was 0.373 µM (active), the GI50 (SN12C) was 0.776 µM (active) and the GI50 (HCC 2998) was 0.11 µM (active). For the same molecule, the GI50 (SF-539) was 0.111 µM (active), the GI50 (OVCAR-5) was 0.824 µM (active) and the GI50 (SK-OV-3) was 0.433 µM (active). For the same molecule, the GI50 (NCI-H522) was 0.0504 µM (active), the GI50 (LOX IMVI) was 0.0466 µM (active) and the GI50 (OVCAR-4) was 0.22 µM (active). For the same molecule, the GI50 (M19-MEL) was 0.161 µM (active), the GI50 (ACHN) was 2.16 µM (inactive) and the GI50 (SNB-78) was 0.309 µM (active). The GI50 (CCRF-CEM) was 0.0417 µM (active), the GI50 (A549) was 0.28 µM (active) and the GI50 (786-0) was 1.43 µM (inactive). The GI50 (SNB-75) was 0.142 µM (active), the GI50 (SW-620) was < 0.0262 µM (active) and the GI50 (SF-295) was 1.22 µM (inactive). For the same molecule, the GI50 (SNB-19) was 0.0661 µM (active).
